# Results: publication PMC8480782, “Efficient Dimerization Disruption of Leishmania infantum Trypanothione Reductase by Triazole-phenyl-thiazoles” (Journal of Medicinal Chemistry, 2021)
# What was measured:
# LiTryR = target: T1, LiTryR (Leishmania infantum, UniProt A4HSF7); experiment: biochemical; format: biochemical; details: LiTryR; 1 μM TS2; maximum assayed 75 μM; read-out: IC50^act, TryR oxidoreductase activity
# T1 construct: HIS (N); made in house; host or cells: E. coli BL21 (DE3) Rossetta
# Experimental: A concentration of 1 μM TS2 was used for this initial screening. This low substrate concentration is sufficient for comparison of compound inhibitory activity in the oxidoreductase assay.
# Recombinant L. infantum TryR (LiTryR) HIS-tagged and HIS-FLAG-tagged versions were used for all LiTryR oxidoreductase activity and dimer quantitation assays. These LiTryR versions were purified from Escherichia coli as previously described.[25] Briefly, pRSETA-HIS-LiTryR construct alone or in combination with the pET24a-FLAG-LiTryR construct was transformed into BL21 (DE3) Rossetta E. coli strain. An overnight E. coli culture grown at 37 °C in Luria–Bertani (LB) medium with the appropriate antibiotics and vigorous shaking was diluted (1:100) in the same medium and allowed to grow in the same conditions until the OD600 was 0.5. Then, LiTryR expression was induced by addition of 1 mM isopropyl-β-D-1-thiogalactopyranoside (IPTG) for 16 h at 26 °C. The cells were centrifuged for 5 min at 9000g and 4 °C and the wet pellet resuspended in lysis buffer (50 mM Tris, pH 7, 300 mM NaCl, 25 mM imidazole, protease inhibitor cocktail, and 1 mg/mL lysozyme). […] The supernatant was sonicated again as previously described for 10 min and loaded on a HisTrap column (GE Healthcare, Chicago, IL) for 16 h at 4 °C using a P-1 peristaltic pump (GE Healthcare, Chicago, IL). Once loaded, the HisTrap column was connected to an ÄKTA purifier UPC 10 (GE Healthcare, Chicago, IL) and washed using a 5–10% gradient between buffer A (50 mM Tris, pH 7 and 300 mM NaCl) and B (50 mM Tris, pH 7, 300 mM NaCl, and 500 mM imidazole). LiTryR was eluted using a 40% gradient between buffers A and B. Fractions containing recombinant LiTryR were pooled and loaded into a HiPrep 26/10 Desalting column (GE Healthcare, Chicago, IL) previously equilibrated with buffer A. Finally, LiTryR was concentrated to 2 mg/mL using an Amicon Ultra-15 50K (Merck Millipore, Burlington, MA) and an equal volume of glycerol was added before storing at −20 °C.
# TryR oxidoreductase activity was determined spectrophotometrically using a modified version of the DTNB-coupled assay described by Hamilton et al.[52] Briefly, reactions were carried out at 26 °C in 250 μL of N-(2-hydroxyethyl)piperazine-N′-ethanesulfonic acid (HEPES) buffer (pH 7.5, 40 mM) containing ethylenediaminetetraacetic acid (EDTA) (1 mM), NADP^+ (30 μM), DTNB (25 μM), TS2 (1 μM), NADPH (150 μM), glycerol (0.02%), DMSO (1.75%), and recombinant TryR (7 nM). […] Reactions were started by addition of a mixture of NADPH and TS2.
# TryR oxidoreductase activity was monitored at 26 °C by an increase in absorbance at 412 nm in an EnSpire Multimode Plate Reader (PerkinElmer, Waltham, MA). […] (TNB) concentration was obtained by multiplying the absorbance values by 100 (50 μM TNB generates 0.5 arbitrary units of absorbance at 412 nm). In this DTNB-coupled assay, one molecule of T(SH)2 reduces one molecule of DTNB, producing two TNB molecules. All of the assays were conducted in at least three independent experiments. Data were analyzed using a nonlinear regression model with GraFit 6 software (Erithacus, Horley, Surrey, U.K.).
# LiTryR dimer = target: T2, LiTryR dimer (Leishmania infantum, UniProt A4HSF7); experiment: biochemical; details: 400 nM LiTryR, 16 h at 37 °C; read-out: IC50^dim, LiTryR monomer displacement (dimer quantitation ELISA)
# T2 construct: made in house; host or cells: E. coli BL21 (DE3) Rossetta (co-transformed with both plasmids)
# Experimental: The stability of the LiTryR dimeric form in the presence of 1,2,3-triazole-phenyl-thiazole-based compounds was evaluated using the novel enzyme-linked immunosorbent assay (ELISA) developed in our laboratory.[25] […] Next, the different solutions were centrifuged at 18 000g for 15 min at room temperature. The supernatants (200 μL/well) were added to the α-FLAG-coated plates (Sigma-Aldrich, St. Louis, MO) and incubated for 30 min at 37 °C with agitation in a humid atmosphere. The plates were washed five times with TTBS buffer (2 mM Tris, pH 7.6, 138 mM NaCl, and 0.1% Tween-20) and incubated with diluted monoclonal α-HIS horseradish peroxidase (HRP)-conjugated antibody (200 μL, 1:50 000, Abcam, Cambridge, U.K.) in fatty acid- and essentially globulin-free bovine serum albumin (BSA) (5%) prepared in TTBS buffer for 1 h at room temperature. The plates were washed five times, and o-phenylenediamine dihydrochloride (OPD) substrate prepared according to the manufacturer’s instructions was added. The enzymatic reaction was stopped after 5 min with H2SO4 (100 μL, […]), and the absorbances were measured at 490 nm in an EnSpire Multimode Plate Reader (PerkinElmer, Waltham, MA). All of the assays were conducted in triplicate in at least three independent experiments. Data were analyzed using a nonlinear regression model with GraFit 6 software (Erithacus, Horley, Surrey, U.K.).
# T1 sequence (A4HSF7 1-491): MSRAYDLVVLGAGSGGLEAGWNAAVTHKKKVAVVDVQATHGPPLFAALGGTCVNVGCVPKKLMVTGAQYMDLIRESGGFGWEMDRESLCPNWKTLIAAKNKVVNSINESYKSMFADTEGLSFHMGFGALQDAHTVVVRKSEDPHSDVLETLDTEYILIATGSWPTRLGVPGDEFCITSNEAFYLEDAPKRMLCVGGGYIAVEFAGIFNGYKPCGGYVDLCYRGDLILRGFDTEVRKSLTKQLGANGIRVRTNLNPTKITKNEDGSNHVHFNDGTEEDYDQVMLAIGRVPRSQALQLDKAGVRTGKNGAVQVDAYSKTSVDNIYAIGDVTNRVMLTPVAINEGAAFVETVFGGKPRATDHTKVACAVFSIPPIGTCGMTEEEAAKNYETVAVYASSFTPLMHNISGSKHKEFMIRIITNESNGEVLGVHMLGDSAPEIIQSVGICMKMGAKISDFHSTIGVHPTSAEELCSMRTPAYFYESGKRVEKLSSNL
# T2 sequence (A4HSF7 1-491): as above
smiles,measurement,setting,value
O=C(O)CCCc1cn(-c2ccc(-c3nc(CCc4ccccc4)cs3)c(OCCN3CCNC3=O)c2)nn1 [12g],melting point,,174.5 to 177.5 °C
same,IC50,LiTryR,> 75 µM
same,IC50,LiTryR dimer,> 75 µM
